Results from article PMC10890530, “Meirols A–C: Bioactive Catecholic Compounds from the Marine-Derived Fungus Meira sp. 1210CH-42” (Marine Drugs, 2024).
Like-named read-outs stand apart in the source and are kept apart here.

What was measured:
[1] = DPPH radical scavenging activity assay; conditions: half maximal effective concentration; triplicate; read-out: DPPH Radical Scavenging Activity (EC50 ± SD)
Procedure: The DPPH radical scavenging activities of 1–4 were determined by the reported method. In a 96-well plate, 100 μL of sample solution (in MeOH) was mixed with 100 μL of DPPH solution (0.16 mM in MeOH), shaken several times, and then incubated at room temperature for 30 min. The absorbance at 517 nm was recorded. Ascorbic acid was used as the positive control, and the experiments were performed in triplicate.

[2] = system: NALM6, B cell acute lymphocytic leukemia; assay: Cytotoxicity assay, NALM6 blood cancer cell line; assay type: cell-based; conditions: triplicate, read-out: Cytotoxic Activity (GI50 ± SD, μM) NALM6
Procedure: (§1) NMR spectra were acquired with a Bruker AVANCE III 600 spectrometer (Bruker Biospin GmbH, Rheinstetten, Germany) with a 3 mm probe operating at 600 MHz (^1H) and 150 MHz (^13C). Chemical shifts were expressed in ppm with reference to the solvent peaks (δH 3.31 and δC 49.15 ppm for CD3OD). UV spectra were recorded with a Shimadzu UV-1650PC spectrophotometer (Shimadzu Corporation, Kyoto, Japan). IR spectra were obtained on an OPUS FT/IR-ALPHA II spectrophotometer (Bruker OPTIK GmbH & Co. KG, Ettlingen, Germany). Optical rotations were measured with a Rudolph analytical Autopol III S2 polarimeter (Rudolph Research Analytical, Hackettstown, NJ, USA). LR-ESIMS data were obtained with an ISQ EM mass spectrometer. HR-ESIMS data were obtained with a Waters SYNPT G2 Q-TOF mass spectrometer (Waters Corporation, Milford, MA, USA) at the Korea Basic Science Institute (KBSI) in Cheongju, Republic of Korea. ECD spectra were recorded with a JASCO J-1500 circular dichroism spectrometer (JASCO Corporation, Tokyo, Japan) at the Center for Research Facilities, Changwon National University, in Changwon, Republic of Korea. HPLC was performed using a BLS-Class pump (Teledyne SSI, Inc., State College, PA 16803, USA) with a Shodex RI-201H refractive index detector (Shoko Scientific Co., Ltd., Yokohama, Japan). Columns for HPLC were YMC-Triart C18 (250 mm × 10 mm, 5 μm), YMC-Triart C8 (250 mm × 10 mm, 5 μm), and YMC-CHIRAL PREP CD PM (250 mm × 4.6 mm, S-10 μm). RP silica gel (YMC-Gel ODS-A, 12 nm, S-75 μm) was used for open-column chromatography. Organic solvents were purchased as HPLC grade, and ultrapure waters were obtained from the Milipore Mili-Q Direct 8 system. The reagents used in the bioassay were purchased from Sigma-Aldrich and Tokyo Chemical Industry. Cancer cell lines were purchased from the Japanese Cancer Research Resources Bank (JCRB) (NUGC-3, JCRB Cell Bank/Cat. # JCRB0822), the DSMZ-German Collection of Microorganisms and Cell Cultures (RPMI-8402, DSMZ/Cat # ACC 290; WSU-DLCL2, DSMZ/Cat # ACC 575), and the American Type Culture Collection (ATCC) (PC-3, ATCC/Cat. # CRL-1435; MDA-MB-231, ATCC/Cat. # HTB-26; ACHN, ATCC/Cat. # CRL-1611; NCI-H23, ATCC/Cat. # CRL-5800; HCT-15, ATCC/Cat. # CCL-225; HL-60, ATCC/Cat. # CCL-240; Raji, ATCC/Cat # CCL-86; K562, ATCC/Cat # CCL-243; NALM6, ATCC/Cat # CRL-3273; U266, ATCC/Cat # TIB-196).
(§2) The cytotoxic activities of 1–4 were measured using the CellTiter-Glo luminescent cell viability assay (Promega, Madison, WI, USA) and conducted by the […], as previously described. The luminescence signal was quantified using a GloMax-Multi Detection System (Promega, Madison, WI, USA), and GI50 values were determined utilizing a relative GI50 model in GraphPad Prism (GraphPad, San Diego, CA, USA). Doxorubicin was used as the positive control.

[3] = system: RPMI-8402, T cell acute lymphocytic leukemia; assay: Cytotoxicity assay, RPMI-8402 blood cancer cell line; assay type: cell-based; conditions: Homo sapiens, 50% growth inhibitory concentration, triplicate, read-out: Cytotoxic Activity (GI50 ± SD, μM) RPMI-8402
Procedure: as §1, §2

α-glucosidase = α-glucosidase inhibitory activity assay (pNPG hydrolysis); assay type: biochemical; conditions: 50% inhibitory concentration; triplicate; read-out: α-Glucosidase Inhibitory Activity (IC50 ± SD)
Procedure: The α-glucosidase inhibitory activity was determined by measuring the absorbance increase resulting from the hydrolysis of p-nitrophenyl-α-D-glucopyranoside (pNPG, TCI) by α-glucosidase at 405 nm using a microplate reader, according to the reference to previously reported literature. The 130 μL sample solution (in 0.1 mM PBS) with the 30 μL α-glucosidase solution (0.2 U/mL) was incubated at 37 °C for 10 min. Subsequently, 40 μL of 5 mM pNPG was added. The reaction mixture was further incubated at 37 °C for 20 min. The α-glucosidase inhibitory activity was determined using a microplate reader at 405 nm. The negative control was prepared by substituting PBS buffer for the sample in the same way as the test.

[4] = Homo sapiens, NALM-6, 50% growth inhibitory concentration
[5] = 50% growth inhibitory concentration

EC50 [1] | IC50 (α-glucosidase) | Structure (SMILES) | GI50 [2, 4] | GI50 [3] | GI50 [2, 5]
7.81 ± 0.25 µM | – | O=C1O[C@H]([C@@H](O)CO)C(O)=C1O [Ascorbic acid, reference compound] | – | – | –
6.2 ± 0.12 µM | > 555 µM | O=C1c2ccc(O)c(O)c2C[C@@H]1O [Compound 4, meirol C] | > 30 µM | > 30 µM | –
6.82 ± 0.06 µM | 199.7 ± 1.87 µM | O=C1NCc2c1ccc(O)c2O [Compound 2, 4,5-dihydroxyisoindolin-1-one] | 29.4 µM | > 30 µM | 29.6 ± 2.27 µM
– | – | COc1cccc2c1C(=O)c1c(O)c3c(c(O)c1C2=O)C[C@@](O)(C(=O)CO)C[C@@H]3O[C@H]1C[C@H](N)[C@H](O)[C@H](C)O1 [Doxorubicin, reference compound] | 0.003 ± 0.0006 µM | 0.015 ± 0.0013 µM | –
7.47 ± 0.13 µM | 184 ± 2.93 µM | O=C1CCc2c1ccc(O)c2O [Compound 1, 4,5-dihydroxyindan-1-one] | 9.48 µM | 21 ± 0.47 µM | 9.47 ± 0.41 µM
6.01 ± 0.07 µM | 367.4 ± 3.01 µM | O=C1C[C@@H](O)c2c1ccc(O)c2O [Compound 3, meirol B] | > 30 µM | > 30 µM | –
